The values that follow come from patent US7595401B2, “Therapeutic compounds and their use in cancer” (Myriad Pharmaceuticals, Inc., priority 2006, dated 2009).

The first test deals with purified human Hsp90. The experiment in a line: Binding Assay: fluorescence polarization with BODIPY-labeled geldanamycin. The note with it: 5 μM compound, BODIPY-GM 10 nM, Hsp90 30 nM. The essentials: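 Compounds in 2% DMSO final compete with 10 nM BODIPY-GM for 30 nM purified human Hsp90, incubated overnight at room temperature in pH 7.3 HEPES buffer containing Na2MoO4 and DTT. Polarization (mP, ex/em 485/530) normalized to DMSO gives percent inhibition; autofluorescence-confounded data excluded.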
(In general: In fluorescence polarisation assays a small probe gives low polarisation when free and higher when bound to something large.)
For orientation: % Inhibition means the relative decrease from the control value, in per cent. The low end stands for a weak effect, the high end for a strong effect. Take `CC(C)(C)OC(=O)N1CC(CCn2cnc(N)c3nc(Sc4cc5c(cc4Br)OCO5)nc2-3)C1` [Example 459, tert-Butyl 3-(2-{6-amino-8-[(6-bromo-1,3-benzodioxol-5-yl)thio]-3H-purin-3-yl}ethyl)azetidine-1-carboxylate]: the “% Inhibition at 5 μM Compound Concentration” value (shortened to “% Inhibition”) is 18%.
Same read-out and setting: the figure for `CC(C)(C)OC(=O)N1C=C(CCn2cnc(N)c3nc(Sc4cc5c(cc4Br)OCO5)nc2-3)CCC1` [Example 463, tert-Butyl 5-(2-{6-amino-8-[(6-bromo-1,3-benzodioxol-5-yl)thio]-3H-purin-3-yl}ethyl)-3,4-dihydropyridine-1(2 H)-carboxylate] is 14%; for `COc1ccc(OC)c(Sc2nc3c(N)ncn(CCC4CCNCC4)c-3n2)c1` [Example 467, 8-[(2,5-Dimethoxyphenyl)thio]-3-(2-piperidin-4-ylethyl)-3 H-purin-6-amine] it is 0%.
As to `Nc1ncn(CCC2CCNCC2)c2nc(Sc3cc4c(cc3Br)OCO4)nc1-2` [Example 468, 8-[(6-Bromo-1,3-benzodioxol-5-yl)thio]-3-(2-piperidin-4-ylethyl)-3 H-purin-6-amine], the “% Inhibition” value came out at 9%.
For the molecule `CC(C)N1CCN(CCn2cnc(N)c3nc(Sc4cc5c(cc4Br)OCO5)nc2-3)CC1` [Example 488, 8-[(6-Bromo-1,3-benzodioxol-5-yl)thio]-3-[2-(4-isopropylpiperazin-1-yl)ethyl]-3H-purin-6-amine], the “% Inhibition” value is recorded as 29%.
Still for that read-out and setting: the figure for `COc1ccc(OC)c(Sc2nc3c(N)ncn(CCN4CCN(C5CCCC5)CC4)c-3n2)c1` [Example 495, 3-[2-(4-Cyclopentylpiperazin-1-yl)ethyl]-8-[(2,5-dimethoxyphenyl)thio]-3 H-purin-6-amine] is 6%; for `C=Cn1cnc(N)c2nc(Sc3cc4c(cc3Br)OCO4)nc1-2` [Example 499, 8-(6-bromo-benzo[1,3]dioxol-5-ylsulfanyl)-3-vinyl-3H-6-ylamine] it is 21%.

The test is the same for the next values; noted with them: BODIPY-GM 10 nM, Hsp90 30 nM.
Usually IC50 stands for the concentration that gives 50% inhibition. A lower IC50 goes with greater potency. Molecule `CC(C)(C)OC(=O)N1CC(CCn2c(Sc3cc4c(cc3Br)OCO4)nc3c(N)ncnc32)C1` [Example 458, tert-Butyl 3-(2-{6-amino-8-[(6-bromo-1,3-benzodioxol-5-yl)thio]-9H-purin-9-yl}ethyl)azetidine-1-carboxylate] registered an IC50 of 380 nM.
Consider `CC(C)(C)OC(=O)N1C=C(CCn2c(Sc3cc4c(cc3Br)OCO4)nc3c(N)ncnc32)CCC1` [Example 462, tert-Butyl 5-(2-{6-amino-8-[(6-bromo-1,3-benzodioxol-5-yl)thio]-9H-purin-9-yl}ethyl)-3,4-dihydropyridine-1(2 H)-carboxylate], for which the IC50 was 7900 nM.
The molecule `CC(C)(C)OC(=O)N1CCC(CCn2c(Sc3cc4c(cc3Br)OCO4)nc3c(N)ncnc32)C(C)(C)C1` (stereo not drawn) [Example 464, tert-Butyl 4-(2-{6-amino-8-[(6-bromo-1,3-benzodioxol-5-yl)thio]-9H-purin-9-yl}ethyl)-3,3-dimethylpiperidine-1-carboxylate] displayed an IC50 of 400 nM.
On to `Nc1ncnc2c1nc(Sc1cc3c(cc1Br)OCO3)n2CCC1CCNCC1` [Example 465, 8-[(6-bromo-1,3-benzodioxol-5-yl)thio]-9-(2-piperidin-4-ylethyl)-9H-purin-6-amine], for which the IC50 is 470 nM.
Molecule `Nc1ncnc2c1nc(Sc1cc3c(cc1Br)OCO3)n2CCC1CCCNC1` (stereo not drawn) [Example 466, 8-[(6-Bromo-1,3-benzodioxol-5-yl)thio]-9-(2-piperidin-3-ylethyl)-9H-purin-6-amine] returned an IC50 of 60 nM.
In the case of `COc1ccc(OC)c(Sc2nc3c(N)ncnc3n2CCC2CCNCC2)c1` [Example 469, 8-[(2,5-Dimethoxyphenyl)thio]-9-(2-piperidin-4-ylethyl)-9 H-purin-6-amine], the IC50 amounted to 8800 nM.
On the same count and under the same terms, with `COc1ccc(OC)c(Sc2nc3c(N)ncnc3n2CCC2CCCNC2)c1` (stereo not drawn) [Example 470, 8-[(2,5-Dimethoxyphenyl)thio]-9-(2-piperidin-3-ylethyl)-9 H-purin-6-amine] the figure was 280 nM.
The same measure, in the same setting: the figure for `Nc1ncnc2c1nc(Sc1cc3c(cc1Br)OCO3)n2CC=C1CCNCC1` [Example 471, 8-[(6-Bromo-1,3-benzodioxol-5-yl)thio]-9-(2-piperidin-4-ylideneethyl)-9 H-purin-6-amine] is 600 nM.
Still for that read-out and setting: the figure for `CC1(C)CNCCC1CCn1c(Sc2cc3c(cc2Br)OCO3)nc2c(N)ncnc21` (stereo not drawn) [Example 472, 8-[(6-Bromo-1,3-benzodioxol-5-yl)thio]-9-[2-(3,3-dimethylpiperidin-4-yl)ethyl]-9 H-purin-6-amine] is 70 nM; for `Nc1ncnc2c1nc(Sc1cc3c(cc1Br)OCO3)n2CC[C@H]1CCCNC1` [Example 473, 8-[(6-Bromo-1,3-benzodioxol-5-yl)thio]-9-{2-[(3R)-piperidin-3-yl]ethyl}-9 H-purin-6-amine] it is 35 nM; for `Nc1ncnc2c1nc(Sc1cc3c(cc1Br)OCO3)n2CC[C@@H]1CCCNC1` [Example 474, 8-[(6-Bromo-1,3-benzodioxol-5-yl)thio]-9-{2-[(3S)-piperidin-3-yl]ethyl}-9 H-purin-6-amine] it is 140 nM.
The molecule `Nc1ncnc2c1nc(Sc1cc3c(cc1Br)OCO3)n2CC[C@H]1CCCCN1` [Example 475, 8-[(6-Bromo-1,3-benzodioxol-5-yl)thio]-9-{2-[(2R)-piperidin-2-yl]ethyl}-9 H-purin-6-amine] returned an IC50 of 172 nM.
Regarding `Nc1ncnc2c1nc(Sc1cc3c(cc1Br)OCO3)n2CCC1CCNC1` (stereo not drawn) [Example 476, 8-[(6-Bromo-1,3-benzodioxol-5-yl)thio]-9-(2-pyrrolidin-3-ylethyl)-9 H-purin-6-amine], the half-inhibitory concentration (IC50) was determined as 90 nM.
The molecule `Nc1ncnc2c1nc(Sc1cc3c(cc1Br)OCO3)n2CC[C@@H]1CCCCN1` [Example 477, 8-[(6-Bromo-1,3-benzodioxol-5-yl)thio]-9-{2-[(2S)-piperidin-2-yl]ethyl}-9 H-purin-6-amine] showed an IC50 of 467 nM.
Take `Nc1ncnc2c1nc(Sc1cc3c(cc1Br)OCO3)n2CC[C@H]1CC[C@@H](N)CC1` [Example 481, 9-[2-(cis-4-Aminocyclohexyl)ethyl] 8-[(6-bromo-1,3-benzodioxol-5-yl)thio]-9 H-purin-6-amine]: the concentration for half-maximal inhibition (IC50) stood at 50 nM.
On the same count and under the same terms, the figure for `Nc1ncnc2c1nc(Sc1cc3c(cc1Br)OCO3)n2CCC1CNC1` [Example 483, 9-(2-Azetidin-3-ylethyl)-8-[(6-bromo-1,3-benzodioxol-5-yl)thio]-9 H-purin-6-amine] is 184 nM; for `Nc1ncnc2c1nc(Sc1cc3c(cc1Br)OCO3)n2CC[C@@H]1CCNC1` [Example 484, 8-[(6-Bromo-1,3-benzodioxol-5-yl)thio]-9-{2-[(3S)-pyrrolidin-3-yl]ethyl}-9 H-purin-6-amine] it is 600 nM.
The same measure, in the same setting: with `COc1ccc(OC)c(Sc2nc3c(N)ncnc3n2CCN2C(=O)CCCC2=O)c1` [Example 485, 1-(2-{6-Amino-8-[(2,5-dimethoxyphenyl)thio]-9H-purin-9-yl}ethyl)piperidine-2,6-dione] the figure was 1000 nM.
On the same count and under the same terms, the figure for `C=Cn1c(S(=O)(=O)c2cc(OC)ccc2OC)nc2c(N)ncnc21` [Example 486, 8-(2,5-dimethoxy-phenylsulfonyl)-9-vinyl-9H -purin-6-ylamine] is 7000 nM; for `CC(C)N1CCN(CCn2c(Sc3cc4c(cc3Br)OCO4)nc3c(N)ncnc32)CC1` [Example 487, 8-[(6-Bromo-1,3-benzodioxol-5-yl)thio]-9-[2-(4-isopropylpiperazin-1-yl)ethyl]-9H-purin-6-amine] it is 900 nM.
The molecule `COc1ccc(OC)c(Sc2nc3c(N)ncn(CCN4CCCCC4)c-3n2)c1` [Example 490, 8-[(2,5-Dimethoxyphenyl)thio]-3-(2-piperidin-1-ylethyl)-3 H-purin-6-amine] came in with an IC50 of 25000 nM.
`Nc1ncn(CCN2CCCCC2)c2nc(Sc3cc4c(cc3Br)OCO4)nc1-2` [Example 492, 8-[(6-Bromo-1,3-benzodioxol-5-yl)thio]-3-(2-piperidin-1-ylethyl)-3 H-purin-6-amine]: the IC50 worked out at 900 nM.
Same read-out and setting: with `COc1ccc(OC)c(Sc2nc3c(N)ncnc3n2CCN2CCN(C(C)C)CC2)c1` [Example 493, 8-[(2,5-Dimethoxyphenyl)thio]-9-[2-(4-isopropylpiperazin-1-yl)ethyl]-9 H-purin-6-amine] the figure was 8900 nM.
Regarding `COc1ccc(OC)c(Sc2nc3c(N)ncnc3n2CCN2CCN(C3CCCC3)CC2)c1` [Example 494, 9-[2-(4-Cyclopentylpiperazin-1-yl)ethyl]-8-[(2,5-dimethoxyphenyl)thio]-9 H-purin-6-amine], the half-inhibitory concentration (IC50) amounted to 5500 nM.
As to `Nc1ncnc2c1nc(Sc1cc3c(cc1Br)OCO3)n2CCN1C(=O)CCCC1=O` [Example 496, 1-(2-{6-Amino-8-[(6-bromo-1,3-benzodioxol-5-yl)thio]-9H-purin-9-yl}ethyl)piperidine-2,6-dione], the IC50 was found to be 81 nM.
In turn, `Nc1ncn(CCN2C(=O)CCCC2=O)c2nc(Sc3cc4c(cc3Br)OCO4)nc1-2` [Example 497, 1-(2-{6-amino-8-[(6-bromo-1,3-benzodioxol-5-yl)thio]-3H-purin-3-yl}ethyl)piperidine-2,6-dione] came in with a concentration for half-maximal inhibition (IC50) of 25000 nM.
Same read-out and setting: with `C=Cn1c(Sc2cc3c(cc2Br)OCO3)nc2c(N)ncnc21` [Example 498, 8-(6-bromo-benzo[1,3]dioxol-5-ylsulfanyl)-9-vinyl-9H-6-ylamine] the figure was 525 nM; with `COC(=O)CCCNC(=O)N1CCC(CCn2c(Sc3cc4c(cc3Br)OCO4)nc3c(N)ncnc32)CC1` [Example 500, Methyl 4-({[4-(2-{6-amino-8-[(6-bromo-1,3-benzodioxol-5-yl)thio]-9H-purin-9-yl}ethyl)piperidin-1-yl]carbonyl}amino)butanoate], 60 nM.
Molecule `Nc1ncnc2c1nc(Sc1cc3c(cc1Br)OCO3)n2CCC1CCN(C(=O)NCCCC(=O)O)CC1` [Example 502, 4-({[4-(2-{6-Amino-8-[(6-bromo-1,3-benzodioxol-5-yl)thio]-9 H-purin-9-yl}ethyl)piperidin-1-yl]carbonyl}amino)butanoic acid] displayed an IC50 of 140 nM.
